Results: patent US20160271118A1, “PHARMACEUTICAL COMPOSITIONS COMPRISING ANTIBACTERIAL AGENTS” (priority 2013, published 2016)
Like-named read-outs stand apart in the source and are kept apart here.

Legend:
Format in all cases: cell-based, Acinetobacter baumannii
[1] = system: A. baumannii NCTC 13301; assay: Broth microdilution MIC (CLSI), A. baumannii NCTC 13301; conditions: for MIC: Acinetobacter baumannii, NCTC13301; for MIC of Sulbactam in combination of compound: compound at 4 mcg/ml; for MIC of Cefepime in combination of compound: compound at 8 mcg/ml
Description: (§1) The broth microdilution Minimum Inhibitory Concentration (MIC) studies were conducted as per the CLSI recommendations (Clinical and Laboratory Standards Institute (CLSI), Performance Standards for Antimicrobial Susceptibility Testing, 20th Informational Supplement, M 100-S20, Volume 30, No. 1, 2010). The media utilized was Brain Heart Infusion broth (BD, USA). In brief, 50 mcl of serial double dilutions of the antibacterial agents in Brain Heart Infusion media were dispensed in 96 well microtiter plate. 50 mcl of culture suspension was added to each pre dispensed drug dilution such that the final bacterial inoculum density was 2-8×10^5 CFU/ml. The plates were incubated for 20-24 hours at 35±2° C. and observed visually for growth or no growth based on the turbidity. Three specific compounds generally represented by a general Formula (I) were used and are as follows: • 1. (2S,5R)-7-oxo-N-[(3S)-pyrrolidin-3-yloxy]-6-(sulfooxy)-1,6-diazabicyclo[3.2.1]octane-2-carboxamide (Compound A),
(§2) The results of antibacterial activity of various compounds when used alone and in combinations according to the inventions are shown in Tables 1 and 2 respectively. The strains of A. baumannii used for the study were those which produced carbapenem hydrolyzing class D beta-lactamase enzymes (OXA 23, OXA 24 or OXA 27). […] In general, the MIC values of Sulbactam and Cefepime reduced when these were combined with Compounds A, B and C.

[2] = system: A. baumannii NCTC 13302; assay: Broth microdilution MIC (CLSI), A. baumannii NCTC 13302; conditions: for MIC: Acinetobacter baumannii, NCTC13302; for MIC of Sulbactam in combination of compound: compound at 4 mcg/ml; for MIC of Cefepime in combination of compound: compound at 8 mcg/ml
Description: as §1, §2

[3] = system: A. baumannii NCTC 13304; assay: Broth microdilution MIC (CLSI), A. baumannii NCTC 13304; conditions: for MIC: Acinetobacter baumannii, NCTC13304; for MIC of Sulbactam in combination of compound: compound at 4 mcg/ml; for MIC of Cefepime in combination of compound: compound at 8 mcg/ml
Description: as §1, §2

[4] = system: A. baumannii; assay: Broth microdilution MIC (CLSI), A. baumannii strains overall; conditions: used alone; for MIC: Acinetobacter baumannii, A. baumannii strains producing OXA 23, OXA 24 or OXA 27
Description: as §1, §2

[5] = compound alone, A. baumannii NCTC 13301 (OXA 51, OXA 23), read-out: MIC
[6] = compound alone, A. baumannii NCTC 13302 (OXA 51, OXA 24), read-out: MIC
[7] = compound alone, A. baumannii NCTC 13304 (OXA 51, OXA 27), read-out: MIC
[8] = A. baumannii NCTC 13301 (OXA 51, OXA 23)
[9] = A. baumannii NCTC 13302 (OXA 51, OXA 24)
[10] = A. baumannii NCTC 13304 (OXA 51, OXA 27)

For `CO/N=C(\C(=O)N[C@@H]1C(=O)N2C(C(=O)[O-])=C(C[N+]3(C)CCCC3)CS[C@H]12)c1csc(N)n1` [Cefepime, reference compound], the MIC [1, 5] was > 32 µg/mL, the MIC [2, 6] was 32 µg/mL and the MIC [3, 7] was 32 µg/mL. The “antibacterial activity against A. baumannii” value (from here on “antibacterial activity”) [4] was “poor antibacterial activity”.

For `O=C(NOC[C@@H]1CCCCN1)[C@@H]1CC[C@@H]2CN1C(=O)N2OS(=O)(=O)O` [Compound C, (2S,5R)-7-oxo-N-[(2S)-piperidine-2-ylmethyloxy]-6-(sulfooxy)-1,6-diazabicyclo[3.2.1]octane-2-carboxamide], the MIC [1, 5] was > 128 µg/mL, the “MIC of Sulbactam in combination of compound” value (“MIC of Sulbactam” for short) [1, 8] was 4 µg/mL and the “MIC of Cefepime in combination of compound” value (shortened to “MIC of Cefepime”) [1, 8] was 32 µg/mL. For the same compound, the MIC [2, 6] was > 128 µg/mL, the “MIC of Sulbactam” value [2, 9] was 8 µg/mL and the “MIC of Cefepime” value [2, 9] was 16 µg/mL. The MIC [3, 7] was > 128 µg/mL, the “MIC of Sulbactam” value [3, 10] was 8 µg/mL and the “MIC of Cefepime” value [3, 10] was 8 µg/mL. The MIC [4] was > 128 µg/mL.

For `O=C(NO[C@H]1CCNC1)[C@@H]1CC[C@@H]2CN1C(=O)N2OS(=O)(=O)O` [Compound A, (2S,5R)-7-oxo-N-[(3S)-pyrrolidin-3-yloxy]-6-(sulfooxy)-1,6-diazabicyclo[3.2.1]octane-2-carboxamide], the MIC [1, 5] was > 128 µg/mL, the “MIC of Sulbactam” value [1, 8] was 4 µg/mL and the “MIC of Cefepime” value [1, 8] was 16 µg/mL. The MIC [2, 6] was > 128 µg/mL, the “MIC of Sulbactam” value [2, 9] was 8 µg/mL and the “MIC of Cefepime” value [2, 9] was 16 µg/mL. The MIC [3, 7] was > 128 µg/mL, the “MIC of Sulbactam” value [3, 10] was 8 µg/mL and the “MIC of Cefepime” value [3, 10] was 16 µg/mL. The MIC [4] was > 128 µg/mL.

`CC1(C)[C@H](C(=O)O)N2C(=O)C[C@H]2S1(=O)=O` [Sulbactam, reference compound] was tested, and the MIC [1] was 8 µg/mL, the MIC [2] was 16 µg/mL and the MIC [3] was 32 µg/mL. The “antibacterial activity” value [4] was “poor antibacterial activity”.

With `C[C@@H](O)[C@H]1C(=O)N2C(C(=O)O)=C(S[C@@H]3CN[C@H](C(=O)N(C)C)C3)[C@H](C)[C@H]12` [Meropenem, reference compound] the MIC [1, 5] was 32 µg/mL, the MIC [2, 6] was > 32 µg/mL and the MIC [3, 7] was > 32 µg/mL. For the same compound, the “antibacterial activity” value [4] was “poor antibacterial activity”.

With `O=C(NOC[C@@H]1CCCN1)[C@@H]1CC[C@@H]2CN1C(=O)N2OS(=O)(=O)O` [Compound B, (2S,5R)-7-oxo-N-[(2S)-pyrrolidin-2-ylmethyloxy]-6-(sulfooxy)-1,6-diazabicyclo[3.2.1]octane-2-carboxamide] the MIC [1, 5] was > 128 µg/mL, the “MIC of Sulbactam” value [1, 8] was 4 µg/mL and the “MIC of Cefepime” value [1, 8] was 16 µg/mL. The MIC [2, 6] was > 128 µg/mL, the “MIC of Sulbactam” value [2, 9] was 4 µg/mL and the “MIC of Cefepime” value [2, 9] was 16 µg/mL. The MIC [3, 7] was > 128 µg/mL, the “MIC of Sulbactam” value [3, 10] was 4 µg/mL and the “MIC of Cefepime” value [3, 10] was 8 µg/mL. For the same compound, the MIC [4] was > 128 µg/mL.
